Source: US20150111896A1, “HEMATOPOIETIC PROTECTION AGAINST CHEMOTHERAPEUTIC COMPOUNDS USING SELECTIVE CYCLIN-DEPENDENT KINASE 4/6 INHIBITORS” (The University of North Carolina at Chapel Hill, priority 2008, published 2015)

How the values were obtained:
[1] = system: human melanoma cells lacking INK4a/ARF (WM2664); assay: Cell cycle analysis (BrdU and propidium iodide, flow cytometry); format: cell-based; details: WM2664 (CDK4/6-dependent), 24 hours treatment
Protocol: (§1) Cells were cultured in DMEM+10% FBS.
(§2) Cell cycle analysis: Cell cycle analysis was performed using BrdU and propidium iodide (both from BD Biosciences Pharmigen, San Jose, Calif., United States of America) following the manufacturer's protocol. Cells were treated for 24 hours with a test compound at a desired dose prior to 15 minutes BrdU pulse, cell harvesting, fixation, staining, and analysis by flow cytometry.
(§3) Histograms of dose-response curves of PD332991 and 2BrIC in HS68, WM2664 and A2058 cells were analyzed using Mod-Fit™ software from Verity Software House (Topsham, Me., United States of America).

[2] = system: telomerized human diploid fibroblast (tHDF) cells (HS68); assay: as above; format: cell-based; details: HS68 (CDK4/6-dependent), 24 hours treatment
Protocol: as §1, §2, §3

[3] = system: human RB-null melanoma cells (A2058); assay: γH2AX assay (DNA damage, flow cytometry); format: cell-based; details: 16 hours pretreatment, then 8 hours Carbo, Etop or Dox
Source text: (§4) Reduction in DNA damage effected by the test compound or maintenance of cell viability effected by the test compound in cells treated with cytotoxic compounds can be assessed in any suitable manner. For example, DNA damage in cell populations can be assessed by performing a gamma-H2AX assay as described further herein below. Mammalian cells respond to agents that introduce DNA double-stranded breaks with the immediate and substantial phosphorylation of histone H2AX. Thus, detection of the phosphorylated H2AX, termed gamma-H2AX (γH2AX), using commercially available antibodies, can serve as a measure of DNA damage in cells.
as §1
(§5) γH2AX assay: For γH2AX assay, cells were treated with a dose response of PD332991 or 2BrIC for 24 hours. Cells were fixed, permeabilized, and stained with anti-γH2AX antibody as per γH2AX Flow Kit (Millipore, Billerica, Mass., United States of America). γH2AX levels were assessed by flow cytometry.

[4] = system: human melanoma cells lacking INK4a/ARF (WM2664); assay: γH2AX assay (DNA damage, flow cytometry); format: cell-based; details: 16 hours pretreatment
Source text: as §4, §1, §5

[5] = system: telomerized human diploid fibroblast (tHDF) cells (HS68); assay: γH2AX assay (DNA damage, flow cytometry); format: cell-based; details: 16 hours pretreatment, then 8 hours Carbo, Etop or Dox
Source text: as §4, §1, §5

[6] = system: hematopoietic stem and progenitor cells (HSPC); assay: In vivo pharmacodynamic assay (BrdU incorporation, Ki67) in bone marrow; set-up: species or system mice
Protocol: PD0332991: For HSPC proliferation experiments, mice received daily oral gavage with PD0332991 150 mg/kg for 2 days with 1 mg BrdU intraperitoneal injection (i.p.) every 6 hours for 24 hours prior to sacrifice.
2BrIC: For HSPC proliferation experiments, mice were treated with two doses of 2-bromo-12,13-dihydro-5H-indolo[2,3-a]pyrrolo[3,4-c]carbazole-5,7(6H)-dione (2BrIC) 300 mg/kg oral gavage or vehicle control. 2BrIC was solubilized for oral gavage using formulation #6 from the Hot Rod formulation kit (Pharmatek, Inc., San Diego, Calif., United States of America). 2BrIC was administered 2 hours prior to BrdU administration and readministered at the time of the BrdU 1 mg i.p. injection. After BrdU+/−2BrIC treatment for the indicated times, the mice were sacrificed and bone marrow harvested for immunophenotyping, and BrdU analysis.
Bone marrow (BM) was harvested from femurs of mice, pooled, and centrifuged to purify bone marrow mononuclear cells (BM-MNCs). Cells were then incubated for 5 minutes in ACK buffer to lyse red blood cells. All antibodies were from BD Pharmingen (San Jose, Calif., United States of America) unless otherwise indicated. Purified BM-MNCs were incubated with mouse lineage mixture biotin conjugated antibody, followed by streptavidin-FITC. Cells were then stained with Sca-1-PE-Cy7 and c-kit-APC-alexa750 antibodies. Cell viability was assessed using LIVE/DEAD Aqua Dead Cell Stain Kit (Invitrogen Corporation, Carlsbad, Calif., United States of America). For BrdU incorporation assay, the cells were fixed, permeablized, and stained with an APC BrdU Flow Kit according to the manufacturer's instruction. In all experiments, PE-Cy7, FITC, APC-alexa750, and the Aqua Dead cell stain isotype controls were included as appropriate. Flow cytometric analysis was performed using a CyAn ADP (Dako, Glostrup, Denmark). For each sample, a minimum of 500,000 cells was analyzed and the data were analyzed using FlowJo software (Tree Star, Ashland, Oreg., United States of America).

[7] = system: mice exposed to chemotherapeutic agents; assay: Myelosuppression assay: weekly complete blood counts; format: in vivo; details: for protection of blood cell counts (platelets, hemoglobin, lymphocytes, granulocytes) from doxorubicin: 150 mg/kg oral gavage 1 hour before DOX 10 mg/kg i.p., repeated after 7 days, blood at fourteen days; for protection of blood cell counts (platelets, hemoglobin, lymphocytes, granulocytes) from carboplatin: 150 mg/kg oral gavage one hour before Carbo 100 mg/kg i.p., blood at seven day intervals
Protocol: PD0332991: In the carboplatin experiments, mice were treated with a single dose of PD0332991 150 mg/kg oral gavage or vehicle control followed by carboplatin 100 mg/kg IP injection. In the doxorubicin experiments, mice were treated with a PD0332991 150 mg/kg by oral gavage or vehicle control one hour before doxorubicin 10 mg/kg by IP injection on day 0 and then repeated on day 7.
2BrIC: Mice were treated with a single dose of carboplatin 100 mg/kg by IP injection and two doses of 2BrIC 150mg/kg oral gavage or vehicle control. Mice were pretreated with 2BrIC two hours prior to carboplatin administration and then readministered a second dose of 2BrIC at the time of the carboplatin injection.
Baseline complete blood count (CBC) analysis were performed on a subset of mice prior to drug administration. Following drug administration (chemotherapy+/−indicated CDK4/6 inhibitor or control), mice were monitored weekly for the presence of myelosuppression by CBC analysis. CBC analysis was performed using BD Microtainer tubes with K2E (K2EDTA), 40 μL of blood was collected by tail vein nick. Blood was analyzed using a HESKA CBC-Diff Veterinary Hematology System. CBC analysis included measurement of white blood cells, lymphocytes, granulocytes, monocytes, hematocrit, red blood cells, hemoglobin, platelets, and other common hematological parameters.

tumor bearing mice = details: serially treated; cited from earlier work
[8] = system: human patients with malignancies; details: serially treated; cited from earlier work
[9] = system: human melanoma cells lacking INK4a/ARF (WM2664); assay: Cell proliferation assay (WST-1 or CellTiter-Glo) after chemotherapeutic; details: WM2664 (CDK4/6-dependent); pretreatment prior to carboplatin, etoposide or doxorubicin
Protocol: (§6) In some embodiments, cell viability is assessed by performing a assay using 2-(4-iodophenyl)-3-(4-nitrophenyl)-5-(2,4-disulfophenyl)-2H-tetrazolium monosodium salt (WST-1), such as described further hereinbelow. In the WST-1 assay, WST-1 is cleaved by a mitochondrial reductase present in viable cells to form a colored product (i.e., formazan) that can be detected by measuring absorbance at a particular wavelength (e.g., 420-480 nm). […] The CellTiter-Glo® assay (CTG assay; Promega, Madison, Wis., United States of America) measures cell viability by measuring ATP concentration in cell lysate.
(§7) Cell lines: Telomerized human diploid fibroblast (tHDF) cells (HS68) were cultured in Dulbecco's Modified Eagle Medium (DMEM) +10% fetal bovine serum (FBS) with any additional compounds. The same conditions were used for A2058 and WM2664, human melanoma cell lines with known RB-pathway mutations: A2058 is RB-null, whereas WM2664 lacks INK4a/ARF. Thus, A2058 cells are CDK4/6-independent, while WM2664 cells are CDK4/6-dependent. Cells were cultured in DMEM+10% FBS.
(§8) Cell proliferation assays: Cell proliferation assays were performed by seeding 1×10^3 cells per well in a 96-well tissue culture plate in 100 μL of growth medium. Cells were treated as indicated with compound from Table 1 and doxorubicin, etoposide or carboplatin. Following treatment, cells were allowed to recover for 7 days in normal growth medium. At the end of the recovery period, cell number was quantified using the VVST-1 cell proliferation assay (TaKaRa Bio USA, Madison, Wis., United States of America) or the CellTiter-Glo® assay (CTG; Promega, Madison, Wis., United States of America). Data is presented as absorbance at 450 nm for the WST assays or Relative Light Units (RLU) for the CTG assays.

[10] = system: telomerized human diploid fibroblast (tHDF) cells (HS68); assay: as above; details: HS68 (CDK4/6-dependent); pretreatment prior to carboplatin, etoposide or doxorubicin
Protocol: as §6, §7, §8

[11] = system: human RB-null melanoma cells (A2058); assay: as above; details: A2058 (CDK4/6-independent); pretreatment prior to carboplatin, etoposide or doxorubicin
Protocol: as §6, §7, §8

In the case of CC(=O)c1c(C)c2cnc(Nc3ccc(N4CCNCC4)cn3)nc2n(C2CCCC2)c1=O [PD0332991, 6-acetyl-8-cyclopentyl-5-methyl-2-(5-piperazin-1-yl-pyridin-2-ylamino)-8H-pyrido-[2,3-d]-pyrimidin-7-one], the cell cycle effect [1] is reported as “strong, clean and reversible G1-arrest”, the cell cycle effect [2] is reported as “strong, clean and reversible G1-arrest” and the “protection from doxorubicin-, carboplatin- or etoposide-induced DNA damage (gamma-H2AX)” value (from here on “protection … (gamma-H2AX)”) [3] is reported as “inability”. The “protection … (gamma-H2AX)” value ([4]; then 8 hours Carbo, Etop or Dox) was “attenuated γH2AX staining”, the “protection from carboplatin-induced DNA damage (gamma-H2AX positive cells)” value ([4]; then 8 hours carboplatin) was “ability” and the “protection from doxorubicin-induced DNA damage (gamma-H2AX positive cells)” value ([4]; then 8 hours doxorubicin) was “ability”. For the same molecule, the “protection from etoposide-induced DNA damage (gamma-H2AX positive cells)” value ([4]; then 8 hours etoposide) was “ability”, the “protection … (gamma-H2AX)” value [5] was “attenuated γH2AX staining” and the “protection … (gamma-H2AX)” value ([5]; listed as PD 0332991) was “ability”. The “proliferation of granulocyte-monocyte progenitors (GMP) and megakaryocyte-erythroid progenitors (MEP)” value ([6]; 150 mg/kg daily oral gavage, 48 hours) was “weaker effects”, the “proliferation in early HSPC populations (BrdU incorporation and Ki67 expression)” value ([6]; 48 hours treatment, 24 hour exposure to BrdU) was “clearly reduces proliferation” and the “frequency of HSC doubly positive for expression of Ki67 and BrdU” value ([6]; HSC (Lin−Kit+Sca1+CD48−CD150+), 150 mg/kg daily oral gavage, 48 hours, C57BII/6 mice) was “significantly decreased”. The “proliferation of oligopotent progenitors (Ki67, BrdU)” value ([6]; Lin−Kit+Sca1−, 150 mg/kg daily oral gavage, 48 hours) was “modest inhibition of proliferation”, the “proliferation of multipotent progenitor cell compartment (Ki67, BrdU)” value ([6]; MPP (Lin−Kit+Sca1+CD48−CD150−), 150 mg/kg daily oral gavage, 48 hours) was “more pronounced inhibition of proliferation” and the “proliferation of Lin−Kit−Sca1− and Lin+ cells” value ([6]; more fully differentiated cells, 150 mg/kg daily oral gavage, 48 hours) was “no change in proliferation”. For the same molecule, the “protection of blood cell counts (platelets, hemoglobin, lymphocytes, granulocytes) from doxorubicin” value [7] was “provides quadrilineage protection”, the “protection of blood cell counts (platelets, hemoglobin, lymphocytes, granulocytes) from doxorubicin” value ([7]; listed as PD332991) was “protected” and the “protection of blood cell counts (platelets, hemoglobin, lymphocytes, granulocytes) from carboplatin” value [7] was “provides quadrilineage protection”. The “protection of blood cell counts (platelets, hemoglobin, lymphocytes, granulocytes) from carboplatin” value ([7]; listed as PD332991) was “protected”, the “erythroid, platelet and myeloid (monocyte+granulocyte) lineages upon administration” value (tumor bearing mice) was “decrease” and the “erythroid, platelet and myeloid (monocyte+granulocyte) lineages upon administration” value [8] was “decrease”. The “protection from chemotherapy-induced cytotoxicity (cell proliferation assays)” value (shortened to “protection … (cell proliferation assays)”) [9] was “significant protection”, the “protection … (cell proliferation assays)” value [10] was “significant protection” and the “protection … (cell proliferation assays)” value [11] was “not”.
